Data as given in patent US11666640B2, “Glucose oxidase compositions as a neonate anticonvulsant” (PENN STATE RESEARCH FOUNDATION, priority 2018, dated 2023).
“Also recorded” adds a separate entry of the source.

Legend:
[1] = system: Cl− channels; experiment: Cl− current recording in cultured cortical neurons; type: cell-based, mouse; details: 10 mM NaGcA
[2] = molecular target: T1, CLC-3 channels (Rattus norvegicus, UniProt P51792); experiment: Whole-cell Cl− currents in CLC-3-transfected HEK293T cells; type: cell-based
T1 construct: host or cells: HEK293T
T1 sequence (P51792 1-760 isoform P51792-2): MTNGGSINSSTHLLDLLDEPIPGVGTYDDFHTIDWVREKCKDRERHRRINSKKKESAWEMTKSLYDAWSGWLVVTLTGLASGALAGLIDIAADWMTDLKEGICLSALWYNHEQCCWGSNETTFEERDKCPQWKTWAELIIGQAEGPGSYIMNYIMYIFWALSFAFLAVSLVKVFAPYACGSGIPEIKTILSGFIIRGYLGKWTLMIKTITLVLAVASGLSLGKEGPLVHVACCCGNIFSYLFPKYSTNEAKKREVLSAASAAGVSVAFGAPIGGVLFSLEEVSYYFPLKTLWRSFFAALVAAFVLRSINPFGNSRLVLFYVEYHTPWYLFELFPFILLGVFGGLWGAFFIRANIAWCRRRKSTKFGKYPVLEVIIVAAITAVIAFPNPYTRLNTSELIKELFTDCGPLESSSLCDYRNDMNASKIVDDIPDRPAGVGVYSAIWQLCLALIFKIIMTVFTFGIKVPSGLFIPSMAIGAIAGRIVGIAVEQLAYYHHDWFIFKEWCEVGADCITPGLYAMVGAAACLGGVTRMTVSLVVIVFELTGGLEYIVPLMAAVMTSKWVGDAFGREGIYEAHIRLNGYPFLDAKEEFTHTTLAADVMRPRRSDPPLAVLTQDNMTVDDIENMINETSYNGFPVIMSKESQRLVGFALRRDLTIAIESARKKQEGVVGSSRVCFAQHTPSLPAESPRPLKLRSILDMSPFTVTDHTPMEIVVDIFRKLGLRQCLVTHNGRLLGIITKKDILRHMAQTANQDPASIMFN

[3] = system: KA induced neonatal seizure; experiment: KA-induced neonatal seizure, in vivo EEG recording; parameters: species or system rat
Method: For example, neonatal rats were administered gluconate to determine the effect on in vivo epileptic seizures in neonatal and adult animals. […] FIGS. 14A and 14B; Dzhala et al., “NKCC1 transporter facilitates seizures in the developing brain” Nature Medicine 11:1205-1213 (2005). […] FIGS. 14C and 14D.
(§1) To test the in vivo anti-epilepsy effects of gluconate in neonatal and adult rodents, P8-12 Sprague-Dawley rats or 2-month old male C57BL/6 mice were deeply anesthetized with pentobarbital sodium (50 mg/kg for neonatal rat and 100 mg/kg for adult mice, intraperitoneal injection). Two stainless steel screws (1 mm in diameter) were inserted in the skull above the cortex as EEG recording electrodes, one ground electrode as well as one reference electrode were located +1.8 mm anterior to bregma, ±0.5 mm lateral to the midline, and 1 mm below the cortical surface. All electrodes were attached to a micro-connector and fixed onto the skull with dental cement. After surgery, neonatal rats were returned to their mothers and allowed to recover for 2 days prior to subsequent EEG recording. The adult mice were single housed in order to prevent damage of the implanted electrodes and allowed to recover at least 5 days before EEG recording.
The baseline of EEG was recorded for 0.5-1 hr to allow the animal to adapt to the environment. Kainic acid (2 mg/kg) was administered intraperitoneally (i.p.) for neonatal epilepsy induction. D-gluconic acid sodium salt (2 g/kg) or 0.9% saline was injected i.p. 10 min after KA administration. Pentylenetetrazol (PTZ) was administered intraperitoneally for inducing a stable epileptic burst activity in adult mice, and D-gluconic acid sodium salt (1 g/kg and 2 g/kg) or 0.9% saline was injected i.p. 10 min before PTZ administration. Epileptiform activity was monitored for 1 hr after PTZ injection. Qian et al., “Epileptiform response of CA1 neurones to convulsant stimulation by cyclothiazide, kainic acid and pentylenetetrazol in anaesthetized rats” Seizure 20:312-319 (2011). After the experiment, animals were injected with diazepam to protect the animals from recurrent epilepsy.
Power was calculated in 1-min time windows by integrating the power of dominant frequency bands from 1 to 100 Hz (EEG band).

[4] = system: PTZ-induced epileptic seizures; experiment: PTZ-induced epileptiform activity in adult mice, EEG recording; type: in vivo, mouse; details: PTZ 50 mg/kg i.p.
Method: as §1
The baseline of EEG was recorded for 0.5-1 hr to allow the animal to adapt to the environment. Kainic acid (2 mg/kg) was administered intraperitoneally (i.p.) for neonatal epilepsy induction. D-gluconic acid sodium salt (2 g/kg) or 0.9% saline was injected i.p. 10 min after KA administration. […] Epileptiform activity was monitored for 1 hr after PTZ injection. […]
Adult EEG signal were analyzed by spike 2 software (an analysis program for CED 1401, Cambridge, UK). […]

[5] = system: GABA-induced neuronal activity; experiment: Cell-attached recording of spike firing elicited by isoguvacine in CA3 pyramidal neurons; type: cell-based, mouse; details: P8-9, isoguvacine 10 μM, 30 s
Method: Besides EGABA, the effects of different drugs on GABA-induced neuronal activity during epileptogenesis were investigated in neonatal animals (e.g., P8-9). To accurately measure GABA-induced neuronal activity, cell-attached recordings monitored spike firing elicited by local application of the GABAA-R agonist isoguvacine (10 μM, 30 s). Tyzio et al., “Maternal oxytocin triggers a transient inhibitory switch in GABA signaling in the fetal brain during delivery” Science 314:1788-1792 (2006). […] FIG. 16K, control, (n=32). […] FIG. 16K, 0 Mg^2+ (n=19). […] FIG. 16K; 0 Mg^2++Bum (n=19); and 0 Mg^2++VU (n=21). […] FIG. 16K; 0 Mg^2++NaGcA (n=18).

[6] = system: KA induced neonatal seizure; experiment: KA-induced neonatal seizure, in vivo EEG recording; details: NaGcA 2 g/kg i.p. about 1 hr after KA, P10-12 rat; sodium salt

O=C([O-])[C@H](O)[C@@H](O)[C@H](O)[C@H](O)CO.[Na+] [NaGcA, D-gluconic acid sodium salt]
Cl− currents ([1]; recorded at +90 mV): 499±89 pA | Cl− currents (inhibition) ([1]; sodium salt): significantly decreased; also recorded: significant NaGcA inhibition | CLC-3-mediated Cl− currents ([2]; 20 mM NaGcA, at +90 mV): 544±59 pA | CLC-3 channel-mediated Cl− currents (inhibition) ([2]; 20 mM NaGcA, sodium salt): significantly inhibited; also recorded: significantly reduced | CLC-3-mediated Cl− currents after washout of NaGcA ([2]; after washout, at +90 mV): 925±124 pA | epileptic seizure (burst) activity in EEG ([3]; P10-12, KA 2 mg/kg i.p., drug i.p. 10 min after KA: NaGcA 2 g/kg, phenobarbital 25 mg/kg, bumetanide 2 mg/kg, sodium salt): significantly inhibited; also recorded: potently inhibited; also recorded: essentially abolished; also recorded: no robust burst discharges | average power of epileptic activity induced by KA, lowering ([3]; P10-12, NaGcA 2 g/kg i.p. vs saline, 1 min time window): 70% | reduction of relative EEG power ([3]; last 30 min of a 2-hr recording period after KA injection, neonatal): 72.3% | epileptic burst activity induced by PTZ [4]: did not suppress the epileptic burst activity as effective | latency of epileptiform spikes or bursts induced by PTZ ([4]; NaGcA 1 and 2 g/kg, sodium salt): prolonging the latency; also recorded: prolonged | spike activity elicited by isoguvacine after 0 Mg2+ treatment [5]: essentially abolished | stable epileptic activity induced by KA (acute effect) [6]: gradually reduced; also recorded: significantly reduced; also recorded: still suppressed seizure activity
